Read-outs that look alike come from different tables or passages of the source.
Key:
MAO-B [1] = biological target: T1, MAO-B (Homo sapiens, UniProt P27338); assay: MAO-B inhibition, kynuramine to 4-hydroxyquinoline, HPLC-fluorescence; format: biochemical
T1 construct: purchased BD Biosciences (San Jose, CA) or Corning Discovery Labware (Woburn, MA)
T1 sequence (P27338 1-520): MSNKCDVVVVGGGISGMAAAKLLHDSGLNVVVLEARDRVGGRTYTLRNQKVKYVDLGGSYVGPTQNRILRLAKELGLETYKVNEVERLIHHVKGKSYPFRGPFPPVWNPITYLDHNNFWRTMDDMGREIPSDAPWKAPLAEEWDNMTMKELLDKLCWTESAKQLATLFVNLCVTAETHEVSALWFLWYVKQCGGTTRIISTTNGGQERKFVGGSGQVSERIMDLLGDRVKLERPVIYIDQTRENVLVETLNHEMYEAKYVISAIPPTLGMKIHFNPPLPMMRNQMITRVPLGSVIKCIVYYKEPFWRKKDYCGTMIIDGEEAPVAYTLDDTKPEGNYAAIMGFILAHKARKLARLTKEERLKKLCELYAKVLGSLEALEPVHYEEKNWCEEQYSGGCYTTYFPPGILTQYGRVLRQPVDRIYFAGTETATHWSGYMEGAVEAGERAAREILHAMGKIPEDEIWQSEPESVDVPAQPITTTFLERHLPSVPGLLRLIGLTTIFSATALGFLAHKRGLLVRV

MAO-A [2] = biological target: T2, MAO-A (Homo sapiens, UniProt P21397); assay: MAO-A inhibition, kynuramine to 4-hydroxyquinoline, HPLC-fluorescence; format: biochemical; conditions: for inhibition of MAO-A activity in screening: highest expected luminal concentration: curcumin 140, guaiacol 435, isoeugenol 110, pterostilbene 270, resveratrol 94, zingerone 51 µM, p < 0.05 vs control; for IC50 / MAO-A inhibition (Figure 6) / MAO-A Hill coefficient: kynuramine 10 µM, 15 min; for IC50 / MAO-A Hill coefficient: MAO-A 0.01 mg/mL; for Selectivity Index: ratio of MAO-B IC50/MAO-A IC50; for MAO-A inhibition (Figure 6): 15 µM test compound (clorgyline 1 µM, selegiline 0.5 µM)
T2 construct: purchased BD Biosciences (San Jose, CA) or Corning Discovery Labware (Woburn, MA)
T2 sequence (P21397 1-527): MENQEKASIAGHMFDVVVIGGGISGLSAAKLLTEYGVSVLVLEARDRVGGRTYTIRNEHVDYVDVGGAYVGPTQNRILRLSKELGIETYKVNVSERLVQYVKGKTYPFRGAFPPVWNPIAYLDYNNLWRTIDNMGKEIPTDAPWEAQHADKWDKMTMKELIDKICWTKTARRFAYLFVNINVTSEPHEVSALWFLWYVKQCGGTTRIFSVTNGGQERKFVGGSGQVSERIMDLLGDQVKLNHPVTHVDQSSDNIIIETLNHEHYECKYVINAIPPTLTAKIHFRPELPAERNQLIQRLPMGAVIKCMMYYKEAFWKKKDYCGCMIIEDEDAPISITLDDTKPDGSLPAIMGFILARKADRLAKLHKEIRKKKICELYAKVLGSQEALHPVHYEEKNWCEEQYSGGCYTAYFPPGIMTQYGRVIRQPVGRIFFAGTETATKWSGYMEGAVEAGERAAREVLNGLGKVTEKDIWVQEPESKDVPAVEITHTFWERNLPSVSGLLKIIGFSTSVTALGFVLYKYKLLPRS

MAO-A [3] = biological target: T2, MAO-A; assay: Inhibition mechanism studies (competition, time dependence) with MAO-A; format: biochemical; conditions: 1 μM, preincubation 0-60 min, then kynuramine 20 μM
[4] = set-up: method as in earlier work; conditions: cited from earlier work
human MAO-A = system: human MAO-A; set-up: method as in PMID 15095350; conditions: cited from earlier work
MAO-A [5] = biological target: T2, MAO-A; assay: Kynuramine oxidative deamination kinetics (saturation, optimization) with MAO-A; format: biochemical; conditions: mean ± SEM
Method: (§1) The optimized incubation time and human recombinant MAO concentration were selected in the linear range from the time-dependent and MAO concentration-dependent studies (Supplemental Data). Briefly, samples were prepared in potassium phosphate buffer (100 mM, pH 7.4) with a final concentration of MAO in the reaction solution of 0.01 mg/mL, incubated at 37°C for 15 min. Saturation of kynuramine metabolism with MAO-A/B was carried out at concentrations of 2, 5, 10, 25, 50, 100, 250, 500 μM. The enzymatic reactions (200μL) were stopped by 2 N NaOH (75 μL) followed with 70% perchloric acid (25 μL). The samples were vortexed and centrifuged for 5 min at 10,000×g. The supernatant was analyzed by HPLC as described above.
(§2) GraphPad Prism 5 was applied to fit a Michaelis-Menten model to the data to obtain the Km values in the saturation experiments. In the screening experiments, significant differences between control and treated group were determined by a one-way ANOVA followed by Dunnett's posttest (p < 0.05). […] The maximum single doses are from published sources. The relevant GI concentration is the lesser of either solubility or the concentration after a single dose.
(§3) Kynuramine (2 to 500 μM) was incubated in 200 μL potassium phosphate buffer (100 mM, pH 7.4) for 15 min with MAO-A or MAO-B (0.01 mg/mL). Michaelis-Menten model was used to fit the data by GraphPad Prism 5. The experiments were conducted 3 times in triplicate. Single representative experiments are shown. […]
(§4) Table S7. Sample Processing Stability for 4-Hydroxyquinoline […]
(§5) B. Optimization of Enzyme Incubations […]
(§6) Kynuramine (10 µM) was incubated with MAO-A (0.01 mg/mL) in 200 µL potassium phosphate buffer (100 mM, pH 7.4) for 10, 20, 30, 40, and 60 min. The formation of 4-hydroxyquinoline was analyzed after the enzymatic reaction. […]

MAO-B [6] = biological target: T1, MAO-B; assay: Kynuramine oxidative deamination kinetics (saturation, optimization) with MAO-B; format: biochemical; conditions: mean ± SEM
Method: as §1, §2, §3, §4, §5, §6

human MAO-B = system: human MAO-B; set-up: method as in PMID 15095350; conditions: cited from earlier work
MAO-B [7] = conditions: cited from earlier work
MAO-A [8] = conditions: cited from earlier work
MAO-A in rat brain = conditions: cited from earlier work
MAO-B in rat brain = biological target: MAO-B in rat brain; set-up: method as in PMID 15120460; conditions: cited from earlier work
MAO-A in mouse brain = conditions: after p.o. administration; cited from earlier work
MAO-B in mouse brain = conditions: after p.o. administration; cited from earlier work
[9] = highest expected luminal concentration: curcumin 140, guaiacol 435, isoeugenol 110, pterostilbene 270, resveratrol 94, zingerone 51 µM, p < 0.05 vs control
[10] = kynuramine 10 µM, MAO-B 0.01 mg/mL, 15 min
[11] = 15 µM test compound (clorgyline 1 µM, selegiline 0.5 µM), kynuramine 10 µM, 15 min

COc1ccccc1O [guaiacol]
inhibition of MAO-B activity in screening (MAO-B [1]; [9]): significantly inhibited
IC50 (MAO-B [1]; [10]): 322 ± 27 µM
inhibition of MAO-A activity in screening (MAO-A [2]): significantly inhibited
IC50 (MAO-A [2]): 131 ± 6 µM
Selectivity Index (MAO-A [2]): 2.46

OC[C@H]1O[C@@H](Oc2ccc(/C=C/c3cc(O)cc(O)c3)cc2)[C@H](O)[C@@H](O)[C@@H]1O [resveratrol 4'-glucoside]
MAO-B inhibition (Figure 6) (MAO-B [1]; [11]): failed to inhibit
MAO-A inhibition (Figure 6) (MAO-A [2]): inhibited MAO-A

COc1cc(/C=C/c2ccc(O[C@@H]3O[C@H](CO)[C@@H](O)[C@H](O)[C@H]3O)cc2)cc(OC)c1 [pterostilbene 4'-glucoside]
MAO-B inhibition (Figure 6) (MAO-B [1]; [11]): failed to inhibit

N[C@@H]1C[C@H]1c1ccccc1 (racemic) [tranylcypromine]
plateau inhibition, MAO-A (MAO-A [3]): 48%

COc1cc(CCC(C)=O)ccc1O [zingerone]
inhibition at 51 µM (MAO-B [1]; 51 µM (GI concentration expected from maximum single dose)): < 10%
inhibition of MAO-A activity in screening (MAO-A [2]): only inhibited MAO-A
IC50 (MAO-A [2]): 16.3 ± 1.1 µM

Oc1ccnc2ccccc12 [4-hydroxyquinoline]
estimated most acidic pKa [4]: 4.3
estimated most basic pKa [4]: 11.1

OC[C@H]1O[C@@H](Oc2cc(O)cc(/C=C/c3ccc(O)cc3)c2)[C@H](O)[C@@H](O)[C@@H]1O [resveratrol 3-glucoside]
MAO-B inhibition (Figure 6) (MAO-B [1]): failed to inhibit

NCCC(=O)c1ccccc1N [kynuramine]
Km (human MAO-A): 42 µM
rate of 4-hydroxyquinoline formation, time-dependent study, MAO-A (MAO-A [5]; kynuramine 10 µM, MAO-A 0.01 mg/mL, 10-60 min): 3.28 ± 0.09 nmol/mg/min
rate of 4-hydroxyquinoline formation, MAO concentration-dependent study, MAO-A (MAO-A [5]; kynuramine 10 µM, MAO-A 0.003-0.03 mg/mL, 15 min): 3.06 ± 0.03 nmol/mg/min
Vmax, MAO-A (MAO-A [5]; kynuramine 2-500 μM, 15 min): 10.2 ± 0.2 nmol/min/mg
estimated most basic pKa [4]: 8.4
rate of 4-hydroxyquinoline formation, time-dependent study, MAO-B (MAO-B [6]; kynuramine 10 µM, MAO-B 0.01 mg/mL, 10-60 min): 2.70 ± 0.07 nmol/mg/min
rate of 4-hydroxyquinoline formation, MAO concentration-dependent study, MAO-B (MAO-B [6]; kynuramine 10 µM, MAO-B 0.003-0.03 mg/mL, 15 min): 3.66 ± 0.08 nmol/mg/min
Vmax, MAO-B (MAO-B [6]; kynuramine 2-500 μM, 15 min): 7.35 ± 0.69 nmol/min/mg
Km (human MAO-B): 26 µM
Km (MAO-B [7]): 90 µM
Km (MAO-A [8]): 44.1 µM

O=c1cc(-c2ccccc2)oc2cc(O)cc(O)c12 [chrysin]
MAO-B inhibition (Figure 6) (MAO-B [1]; [11]): inhibited both enzymes
MAO-A inhibition (Figure 6) (MAO-A [2]): inhibited both enzymes

COc1ccc(C(C)=O)c(O)c1 [paeonol]
Ki (MAO-A in rat brain): 51.1 µM
mode of inhibition, MAO-A (MAO-A in rat brain): non-competitive
Ki (MAO-B in rat brain): 38.2 µM
mode of inhibition, MAO-B (MAO-B in rat brain): competitive

O=c1c(O)c(-c2ccc(O)c(O)c2)oc2cc(O)cc(O)c12 [quercetin]
MAO-B inhibition (MAO-B [7]): inhibitor
MAO-A inhibition (MAO-A [8]): inhibitor

Cc1cc(O)c2c(c1)C(=O)c1cc(O)cc(O)c1C2=O [emodin]
Ki (MAO-B in rat brain): 15.1 µM
mode of inhibition, MAO-B (MAO-B in rat brain): mixed mode

COc1cc(/C=C/C(=O)CC(=O)/C=C/c2ccc(O)c(OC)c2)ccc1O [curcumin]
MAO-A inhibition in mouse brain (MAO-A in mouse brain): inhibits
inhibition of MAO-B activity in screening (MAO-B [1]; [9]): significantly inhibited
MAO-B Hill coefficient (MAO-B [1]; [10]): 1.7 ± 0.1
MAO-B inhibition in mouse brain (MAO-B in mouse brain): inhibits
inhibition of MAO-A activity in screening (MAO-A [2]): significantly inhibited
MAO-A Hill coefficient (MAO-A [2]): 2.0 ± 0.4

O=C(/C=C/C=C/c1ccc2c(c1)OCO2)N1CCCCC1 [piperine]
Ki (MAO-A in rat brain): 35.8 µM
mode of inhibition, MAO-A (MAO-A in rat brain): mixed
Ki (MAO-B in rat brain): 79.9 µM
mode of inhibition, MAO-B (MAO-B in rat brain): competitive

O=c1c(O)c(-c2ccc(O)cc2)oc2cc(O)cc(O)c12 [kaempferol]
MAO-A inhibition (MAO-A [8]): selective MAO-A inhibitor

isoeugenol
inhibition of MAO-B activity in screening (MAO-B [1]): significantly inhibited
MAO-B Hill coefficient (MAO-B [1]; [10]): 2.4 ± 0.3
inhibition of MAO-A activity in screening (MAO-A [2]): significantly inhibited
MAO-A Hill coefficient (MAO-A [2]): 1.2 ± 0.1
Selectivity Index (MAO-A [2]): 27.4
